Consider two molecules from patent publication US12637452B2, “Crystalline forms of a substituted imidazopyridine compound and use thereof as P2X3 modulator” (GlaxoSmithKline Intellectual Property (No. 3) Limited, priority 2018, dated 2026).

Holding throughout (assay type): physicochemical
Data set [1] is described as follows: Approximate solubility of starting material in 28 solvents at RT. The settings on record: 25 °C, thermodynamic from solid, starting material Form A0. As to the method: Approximate solubility of starting material (Compound 1, Form A0) was determined in 28 solvents at RT (25±3° C.). ˜2 mg of the starting material was added into each 3-mL glass vial. Solvents were then added stepwise (50/50/200/700 μL per step) into the vials until the solids were dissolved visually or a total volume of 1 mL was reached. Solubility results summarized in Table 2 were used to guide the solvent selection in screening design.

The nature of data set [2]: Theoretical maxima water uptake of a monohydrate from the single crystal structure. To be noted: only lattice waters considered. An excerpt: A single crystal structure of Compound 1 Type A* family (form Type A0) was collected using crystals grown in ACN/H2O (1:3, v/v). Data were collected at 123 K using a Bruker D8 VENTURE diffractometer (Mo/Kα λ=0.71073 Å) with the following instrument parameters:
From the single crystal structure, there are four possible hydration sites in the unit cell. If each of the hydration sites is occupied by one water molecule, a monohydrate would be expected, which should correspond to the theoretical maxima water incorporation in the crystal lattice of Type A* family crystals. For a monohydrate, if only lattice waters are considered, the theoretical maxima water uptake is 3.9%, which is very close to the experimental DVS results (˜4.1-4.2% at 100% RH at 25° C.). In addition, there may be less than one water molecule on each hydration site because of the disorder, and a stoichiometry of less than 1:1 for water:API may be expected in an actual Type A* family crystal which is consistent with the almost linear increase/decrease of water content as a function of humidity in the DVS test.

Data set [3] can be described thus: Dynamic vapor sorption (DVS) test, water uptake and form stability as a function of relative humidity. As to the method:
DVS test was performed using an SMS (Surface Measurement Systems) DVS Intrinsic instrument. The relative humidity were calibrated against deliquescence point of LiCl, Mg(NO3)2 and KCl. The following instrument parameters were used at 25° C. and 40° C.:
DVS test was performed for Type A* family to investigate its form stability as a function of relative humidity. The DVS test was first conducted in a couple of cycles with different ends (30% and 95% RH) at 25° C. The samples were equilibrated at each RH point until wt % change was lower than 0.002% or the total time reached 3 hrs.
The crystal forms after DVS test were detected by XRPD. For the cycle (ambient RH-95% RH-0% RH-30% RH), the crystal form after DVS test was determined to be Type A (FIG. 5), corresponding to the ambient humidity (61.5% RH) when performing XRPD analysis. While for the cycle (ambient RH-95% RH-0% RH-95% RH), Type A1 was observed after DVS test (FIG. 7), corresponding to the ambient humidity (66.3% RH) when performing XRPD analysis.
DVS test was also conducted in the cycle (ambient RH-95% RH-0% RH-95% RH) at 40° C.

Each structure is given as a SMILES string. ≈ marks a conversion by molar mass, not a printed value.

One may read the solubility as how much of the substance goes into solution per volume. For `CNC(=O)c1cc(F)c(-c2nc3cc(C)ccn3c2C[C@H]2CN(C(=O)OC)CCO2)c(F)c1` [Compound 1, methyl (S)-2-((2-(2,6-difluoro-4-(methylcarbamoyl)phenyl)-7-methylimidazo[1,2-a]pyridin-3-yl)methyl)morpholine-4-carboxylate], the solubility in data set [1] (organic solvent or mixture, solvent 1,2-Dichloroethane, RT (25±3° C.)) was over 38 mg/mL; in data set [1] (organic solvent or mixture, solvent 1,4-Dioxane, RT (25±3° C.)), 2.4 to 8 mg/mL (≈ 5.23 to 17.4 mM); in data set [1] (organic solvent or mixture, solvent 1-Propanol, RT (25±3° C.)), over 38 mg/mL; in data set [1] (organic solvent or mixture, solvent 2-MeTHF, RT (25±3° C.)) it was 1.8 to 6 mg/mL (≈ 3.93 to 13.1 mM); in data set [1] (organic solvent or mixture, solvent ACN, RT (25±3° C.)) it was 20 to 40 mg/mL (≈ 43.6 to 87.2 mM); in data set [1] (organic solvent or mixture, solvent Acetone, RT (25±3° C.)), 19 to 38 mg/mL (≈ 41.4 to 82.9 mM). Also, the solubility was 2 to 6.7 mg/mL (≈ 4.36 to 14.6 mM) in data set [1] (organic solvent or mixture, solvent Anisole, RT (25±3° C.)); under 2.4 mg/mL in data set [1] (organic solvent or mixture, solvent Butyl acetate, RT (25±3° C.)); over 40 mg/mL in data set [1] (organic solvent or mixture, solvent CHCl3, RT (25±3° C.)); over 40 mg/mL in data set [1] (organic solvent or mixture, solvent DCM, RT (25±3° C.)); over 38 mg/mL in data set [1] (organic solvent or mixture, solvent DMF, RT (25±3° C.)); over 48 mg/mL in data set [1] (organic solvent or mixture, solvent DMSO, RT (25±3° C.)). Moreover, the solubility in data set [1] (organic solvent or mixture, solvent Diethyleneglycol, RT (25±3° C.)) was 2.4 to 8 mg/mL (≈ 5.23 to 17.4 mM); in data set [1] (organic solvent or mixture, solvent Dimethoxyethane, RT (25±3° C.)), 6.7 to 20 mg/mL (≈ 14.6 to 43.6 mM); in data set [1] (organic solvent or mixture, solvent EtOAc, RT (25±3° C.)), under 2 mg/mL; in data set [1] (organic solvent or mixture, solvent EtOH, RT (25±3° C.)) it was over 46 mg/mL; in data set [1] (organic solvent or mixture, solvent IPA, RT (25±3° C.)), 20 to 40 mg/mL (≈ 43.6 to 87.2 mM); in data set [1] (organic solvent or mixture, solvent IPAc, RT (25±3° C.)), under 1.9 mg/mL. Also, the solubility in data set [1] (organic solvent or mixture, solvent MEK, RT (25±3° C.)) was 7.7 to 23 mg/mL (≈ 16.8 to 50.2 mM); in data set [1] (organic solvent or mixture, solvent MIBK, RT (25±3° C.)), under 2.2 mg/mL; in data set [1] (organic solvent or mixture, solvent MTBE, RT (25±3° C.)), under 2.2 mg/mL; in data set [1] (organic solvent or mixture, solvent MeOH, RT (25±3° C.)) it was over 44 mg/mL; in data set [1] (organic solvent or mixture, solvent THF, RT (25±3° C.)), over 46 mg/mL; in data set [1] (organic solvent or mixture, solvent Toluene, RT (25±3° C.)), under 2 mg/mL. Further, the solubility was over 42 mg/mL in data set [1] (organic solvent or mixture, solvent n-Butanol, RT (25±3° C.)); under 1.9 mg/mL in data set [1] (organic solvent or mixture, solvent n-Heptane, RT (25±3° C.)); under 2.2 mg/mL in data set [1] (organic solvent or mixture, solvent n-Hexane, RT (25±3° C.)); under 2.4 mg/mL in data set [1] (water, solvent H2O, RT (25±3° C.)).
As to `CNC(=O)c1cc(F)c(-c2nc3cc(C)ccn3c2C[C@H]2CN(C(=O)OC)CCO2)c(F)c1` [Type A* family, methyl (S)-2-((2-(2,6-difluoro-4-(methylcarbamoyl)phenyl)-7-methylimidazo[1,2-a]pyridin-3-yl)methyl)morpholine-4-carboxylate], the “theoretical maxima water uptake” value in data set [2] is on record as 3.9%. Moreover, the “crystal form after DVS test (XRPD)” value in data set [3] (25° C., cycle ambient RH-95% RH-0% RH-30% RH, ambient humidity 61.5% RH at XRPD analysis) is recorded as “Type A”; in data set [3] (25° C., cycle ambient RH-95% RH-0% RH-95% RH, ambient humidity 66.3% RH at XRPD analysis), “Type A1”; in data set [3] (40° C., cycle ambient RH-95% RH-0% RH-95% RH, ambient humidity 69.5% RH at XRPD test), “Type A1”. Also, in data set [3] (at 100% RH at 25° C.), the “water uptake, experimental DVS results” value was 4.1-4.2%.
